Measured values published in the supplement of paper PMC10307832.

Key:
Assay in all cases: relative viability (nuclei count vs DMSO), 5 days (fraction); higher = more cells survive
[1] = test system: NCI-H2405
Procedure, shortened: (§1)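 Relative viability equals treated-well nuclei counts divided by vehicle-well nuclei counts. Counts came from 4× images of lung cancer cell lines grown in 1536-well plates for 5 days after pin-tool dosing on the day after seeding. Dosing used one drug alone or a fixed anchor-drug dose plus five library-drug doses (not always all listed) in √10 steps, and values are medians of duplicate plates.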

[2] = test system: NCI-H2023
Procedure, shortened: as §1

[3] = test system: NCI-H520
Procedure, shortened: as §1

[4] = test system: COR-L23
Procedure, shortened: as §1

[5] = test system: NCI-H1793
Procedure, shortened: as §1

[6] = test system: NCI-H650
Procedure, shortened: as §1

[7] = test system: HCC-44
Procedure, shortened: as §1

[8] = test system: EMC-BAC-2
Procedure, shortened: as §1

[9] = test system: LU99A
Procedure, shortened: as §1

[10] = test system: HCC-827
Procedure, shortened: as §1

[11] = test system: NCI-H1651
Procedure, shortened: as §1

[12] = test system: H3255
Procedure, shortened: as §1

[13] = test system: NCI-H1563
Procedure, shortened: as §1

[14] = test system: NCI-H2087
Procedure, shortened: as §1

[15] = test system: NCI-H838
Procedure, shortened: as §1

[16] = test system: EPLC-272H
Procedure, shortened: as §1

[17] = test system: NCI-H1944
Procedure, shortened: as §1

[18] = test system: ChaGo-K-1
Procedure, shortened: as §1

[19] = test system: SK-MES-1
Procedure, shortened: as §1

[20] = test system: LCLC-103H
Procedure, shortened: as §1

[21] = test system: NCI-H1395
Procedure, shortened: as §1

[22] = test system: NCI-H2085
Procedure, shortened: as §1

For Cc1sc2c(c1C)C(c1ccc(Cl)cc1)=N[C@@H](CC(=O)OC(C)(C)C)c1nnc(C)n1-2 [JQ1] + Nc1nc2[nH]cc(CCc3ccc(C(=O)N[C@@H](CCC(=O)O)C(=O)O)cc3)c2c(=O)[nH]1 [Pemetrexed] (partner 0.2 µM), the relative viability ([1]; first compound 0.04 µM) was 1.08, the relative viability ([1]; first compound 0.4 µM) was 0.899 and the relative viability ([1]; first compound 1.265 µM) was 0.72. The relative viability ([1]; first compound 4 µM) was 0.321, the relative viability ([2]; first compound 0.04 µM) was 0.231 and the relative viability ([2]; first compound 0.1265 µM) was 0.195. It also gave a relative viability ([2]; first compound 0.4 µM) of 0.139, a relative viability ([2]; first compound 1.265 µM) of 0.101 and a relative viability ([2]; first compound 4 µM) of 0.109. For the same molecule, the relative viability ([3]; first compound 0.04 µM) was 0.565, the relative viability ([3]; first compound 0.1265 µM) was 0.536 and the relative viability ([3]; first compound 0.4 µM) was 0.491. For the same molecule, the relative viability ([3]; first compound 1.265 µM) was 0.307, the relative viability ([3]; first compound 4 µM) was 0.195 and the relative viability ([4]; first compound 0.04 µM) was 0.21. For the same molecule, the relative viability ([4]; first compound 0.1265 µM) was 0.214, the relative viability ([4]; first compound 0.4 µM) was 0.196 and the relative viability ([4]; first compound 1.265 µM) was 0.159. The relative viability ([4]; first compound 4 µM) was 0.147, the relative viability ([5]; first compound 0.04 µM) was 0.748 and the relative viability ([5]; first compound 0.1265 µM) was 0.81. For the same molecule, the relative viability ([5]; first compound 0.4 µM) was 0.648, the relative viability ([5]; first compound 1.265 µM) was 0.661 and the relative viability ([5]; first compound 4 µM) was 0.78. The relative viability ([6]; first compound 0.04 µM) was 0.886, the relative viability ([6]; first compound 0.1265 µM) was 0.664 and the relative viability ([6]; first compound 0.4 µM) was 0.839. The relative viability ([6]; first compound 1.265 µM) was 0.6, the relative viability ([6]; first compound 4 µM) was 0.276 and the relative viability ([7]; first compound 0.04 µM) was 0.59. It also gave a relative viability ([7]; first compound 0.1265 µM) of 0.617, a relative viability ([7]; first compound 0.4 µM) of 0.692 and a relative viability ([7]; first compound 1.265 µM) of 0.58. For the same molecule, the relative viability ([7]; first compound 4 µM) was 0.444, the relative viability ([8]; first compound 0.04 µM) was 0.437 and the relative viability ([8]; first compound 0.1265 µM) was 0.369. It also gave a relative viability ([8]; first compound 0.4 µM) of 0.365, a relative viability ([8]; first compound 1.265 µM) of 0.366 and a relative viability ([8]; first compound 4 µM) of 0.33. The relative viability ([9]; first compound 0.04 µM) was 0.173, the relative viability ([9]; first compound 0.4 µM) was 0.167 and the relative viability ([9]; first compound 1.265 µM) was 0.15. The relative viability ([9]; first compound 4 µM) was 0.153, the relative viability ([10]; first compound 0.04 µM) was 0.262 and the relative viability ([10]; first compound 0.1265 µM) was 0.255. The relative viability ([10]; first compound 1.265 µM) was 0.211, the relative viability ([10]; first compound 4 µM) was 0.247 and the relative viability ([11]; first compound 0.04 µM) was 0.589. The relative viability ([11]; first compound 0.1265 µM) was 0.45, the relative viability ([11]; first compound 0.4 µM) was 0.391 and the relative viability ([11]; first compound 1.265 µM) was 0.458. The relative viability ([11]; first compound 4 µM) was 0.358, the relative viability ([12]; first compound 0.04 µM) was 0.569 and the relative viability ([12]; first compound 0.1265 µM) was 0.515. It also gave a relative viability ([12]; first compound 0.4 µM) of 0.453, a relative viability ([12]; first compound 1.265 µM) of 0.364 and a relative viability ([12]; first compound 4 µM) of 0.3. For the same molecule, the relative viability ([13]; first compound 0.04 µM) was 0.698, the relative viability ([13]; first compound 0.1265 µM) was 0.715 and the relative viability ([13]; first compound 0.4 µM) was 0.673. It also gave a relative viability ([13]; first compound 1.265 µM) of 0.47, a relative viability ([13]; first compound 4 µM) of 0.491 and a relative viability ([14]; first compound 0.04 µM) of 0.621. For the same molecule, the relative viability ([14]; first compound 0.1265 µM) was 0.675, the relative viability ([14]; first compound 0.4 µM) was 0.692 and the relative viability ([14]; first compound 1.265 µM) was 0.558. It also gave a relative viability ([14]; first compound 4 µM) of 0.463, a relative viability ([15]; first compound 0.04 µM) of 0.24 and a relative viability ([15]; first compound 0.1265 µM) of 0.167. The relative viability ([15]; first compound 0.4 µM) was 0.176, the relative viability ([15]; first compound 1.265 µM) was 0.177 and the relative viability ([15]; first compound 4 µM) was 0.17. For the same molecule, the relative viability ([16]; first compound 0.04 µM) was 0.309, the relative viability ([16]; first compound 0.1265 µM) was 0.336 and the relative viability ([16]; first compound 0.4 µM) was 0.29. For the same molecule, the relative viability ([16]; first compound 1.265 µM) was 0.298, the relative viability ([16]; first compound 4 µM) was 0.317 and the relative viability ([17]; first compound 0.04 µM) was 0.74. The relative viability ([17]; first compound 0.1265 µM) was 0.565, the relative viability ([17]; first compound 0.4 µM) was 0.466 and the relative viability ([17]; first compound 1.265 µM) was 0.446. For the same molecule, the relative viability ([17]; first compound 4 µM) was 0.438, the relative viability ([18]; first compound 0.04 µM) was 0.25 and the relative viability ([18]; first compound 0.1265 µM) was 0.256. It also gave a relative viability ([18]; first compound 0.4 µM) of 0.245, a relative viability ([18]; first compound 1.265 µM) of 0.252 and a relative viability ([18]; first compound 4 µM) of 0.243. For the same molecule, the relative viability ([19]; first compound 0.04 µM) was 0.967, the relative viability ([19]; first compound 0.1265 µM) was 0.686 and the relative viability ([19]; first compound 0.4 µM) was 0.397. The relative viability ([19]; first compound 1.265 µM) was 0.289, the relative viability ([19]; first compound 4 µM) was 0.235 and the relative viability ([20]; first compound 0.04 µM) was 0.44. For the same molecule, the relative viability ([20]; first compound 0.1265 µM) was 0.385, the relative viability ([20]; first compound 0.4 µM) was 0.393 and the relative viability ([20]; first compound 1.265 µM) was 0.359. For the same molecule, the relative viability ([20]; first compound 4 µM) was 0.437, the relative viability ([21]; first compound 0.04 µM) was 0.911 and the relative viability ([21]; first compound 0.1265 µM) was 0.737. For the same molecule, the relative viability ([21]; first compound 0.4 µM) was 0.797, the relative viability ([21]; first compound 1.265 µM) was 0.496 and the relative viability ([21]; first compound 4 µM) was 0.343. It also gave a relative viability ([22]; first compound 0.04 µM) of 0.738, a relative viability ([22]; first compound 0.1265 µM) of 0.721 and a relative viability ([22]; first compound 0.4 µM) of 0.668. The relative viability ([22]; first compound 1.265 µM) was 0.403 and the relative viability ([22]; first compound 4 µM) was 0.374.
